Reference: US20240173298A1, “COMPOSITION FOR AMELIORATING OR SUPPRESSING DECLINE OF KIDNEY FUNCTIONS” (SUNTORY HOLDINGS LIMITED, priority 2021, published 2024)

How the values were obtained:
[1] = Study on evaluation of blood renal function markers in humans (placebo-controlled, randomized, double-blind, parallel-group); assay type: in vivo; conditions: one capsule with 20 mg L-ergothioneine per day, oral, four weeks, week 4 minus pre-testing, versus control food group
Description: In order to evaluate the influence of supplements containing ergothioneine on blood renal function marker levels in humans, a placebo-controlled, randomized, double-blind, parallel-group study was conducted on subjects including male and female adults (46 subjects in a test food group; 46 subjects in a control food group; 92 subjects in total). In this study, one capsule containing 20 mg ergothioneine (test food) or one capsule not containing ergothioneine (control food) was fed per day for four weeks. Blood renal function marker levels of each subject were measured for pre-testing before starting the study (before starting ingestion of the test food or control food). After ingestion of the test food or control food for four weeks, blood renal function marker levels of each subject were measured again (testing on week 4). Renal function markers used for measurement were BUN, uric acid, and creatinine. […] For each subject, the BUN level measured at the time of pre-testing was subtracted from the BUN level measured at the time of testing on week 4 ((level measured at the time of testing on week 4)—(level measured at the time of pre-testing)) to determine Δ in level (the amount of change in BUN level) (mg/dL). […] For each subject, the uric acid level measured at the time of pre-testing was subtracted from the uric acid level measured at the time of testing on week 4 ((level measured at the time of testing on week 4)−(level measured at the time of pre-testing)) to determine Δ in level (the amount of change in uric acid level) (mg/dL). […] For each subject, the creatinine level measured at the time of pre-testing was subtracted from the creatinine level measured at the time of testing on week 4 ((level measured at the time of testing on week 4)−(level measured at the time of pre-testing)) to determine Δ in level (the amount of change in creatinine level) (mg/dL). […]

[2] = mice, oral administration, versus mice not administered; cited from earlier work

C[N+](C)(C)[C@@H](Cc1c[nH]c(=S)[nH]1)C(=O)[O-] [L-ergothioneine]
change in BUN level (Δ in BUN) [1]: reduced
change in blood creatinine level (Δ in creatinine) [1]: reduced
change in blood uric acid level (Δ in uric acid) [1]: reduced
peritesticular fat weight [2]: lower
triglyceride (neutral fat) level in plasma [2]: lower
